Test results as given in paper PMC12655351, “Synthesis and Anticancer Activity Evaluation of New 5-((5-Nitrofuran-2-yl)allylidene)-2-thioxo-4-thiazolidinones” (Pharmaceuticals, 2025).

Tests used:
CCRF-CEM = conditions: 48 h
SR = conditions: 48 h
NCI-H23 [1] = conditions: NCI-H23, 48 h
LOX IMVI [2] = conditions: LOX IMVI, 48 h
MDA-MB-435 [3] = conditions: MDA-MB-435, 48 h
786-0 = conditions: 786-0, 48 h
CAKI-1 [4] = conditions: for TGI: CAKI-1, 48 h
TK-10 [5] = conditions: TK-10, 48 h
HS 578T = conditions: 48 h
CNS cancer = CNS cancer subpanel
Ovarian cancer [6] = conditions: Ovarian cancer subpanel
Breast cancer = Breast cancer subpanel
K-562 = assay: cells; conditions: Homo sapiens, K562, 48 h; for GI50: K-562, 48 h; for CC50: read-out: LC50
MOLT-4 = assay: cells; conditions: Homo sapiens, MOLT-4, 48 h; for CC50: read-out: LC50, MOLT-4, 48 h
NCI-H23 [7] = assay: cells; conditions: Homo sapiens, NCI-H23, 48 h; for CC50: read-out: LC50, NCI-H23, 48 h
HCT-116 = assay: cells; conditions: Homo sapiens, HCT-116, 48 h
HT29 = assay: cells; conditions: Homo sapiens, HT-29, 48 h; for GI50: HT29, 48 h; for CC50: read-out: LC50, HT29, 48 h
LOX IMVI [8] = assay: cells; conditions: Homo sapiens, 48 h; for CC50: read-out: LC50, LOX IMVI, 48 h
MDA-MB-435 [9] = assay: cells; conditions: Homo sapiens, MDA-MB-435, 48 h; for CC50: read-out: LC50, MDA-MB-435, 48 h
UACC-257 = assay: cells; conditions: Homo sapiens, UACC-257, 48 h; for CC50: read-out: LC50, UACC-257, 48 h
CAKI-1 [10] = assay: cells; conditions: Homo sapiens, CAKI-1, 48 h
SN12C = assay: cells; conditions: Homo sapiens, 48 h; for CC50: read-out: LC50, SN12C, 48 h
TK-10 [11] = assay: cells; conditions: Homo sapiens, TK-10, 48 h; for CC50: read-out: LC50, TK-10, 48 h
BT-549 = assay: cells; conditions: Homo sapiens, BT-549, 48 h; for CC50: read-out: LC50, BT-549, 48 h
T-47D = assay: cells; conditions: Homo sapiens, T47D, 48 h; for GI50: T-47D
Melanoma = assay: cells; conditions: Homo sapiens; for GI50: read-out: MG_MID GI50; for CC50: read-out: MG_MID LC50
Ovarian cancer [12] = assay: cells; conditions: Homo sapiens; for GI50: read-out: MG_MID GI50; for CC50: read-out: MG_MID LC50
Renal Cancer = assay: cells; conditions: Homo sapiens; for GI50: read-out: MG_MID GI50; for CC50: read-out: MG_MID LC50
A549/ATCC = assay: NCI-60 SRB screen; conditions: for TGI: 48 h; for GI50: Homo sapiens, A549, 48 h
EKVX = assay: NCI-60 SRB screen; conditions: 48 h; for GI50 / CC50: Homo sapiens; for CC50: read-out: LC50, EKVX, 48 h
NCI-H266 = assay: NCI-60 SRB screen; conditions: for GI50 / CC50: Homo sapiens, 48 h; for GI50 / TGI: NCI-H266, 48 h; for CC50: read-out: LC50, NCI-H266, 48 h
SF-295 = assay: NCI-60 SRB screen; conditions: SF-295, 48 h; for GI50 / CC50: Homo sapiens; for CC50: read-out: LC50, SF-295, 48 h
SNB-75 = assay: NCI-60 SRB screen; conditions: SNB-75, 48 h; for GI50 / CC50: Homo sapiens; for CC50: read-out: LC50, SNB-75, 48 h
U251 = assay: NCI-60 SRB screen; conditions: for GI50 / CC50: Homo sapiens, U-251, 48 h; for GI50 / TGI: U251, 48 h; for CC50: read-out: LC50, U251, 48 h
M14 = assay: NCI-60 SRB screen; conditions: M14, 48 h; for GI50 / CC50: Homo sapiens; for CC50: read-out: LC50, M14, 48 h
SK-MEL-2 = assay: NCI-60 SRB screen; conditions: SK-MEL-2, 48 h; for GI50 / CC50: Homo sapiens; for CC50: read-out: LC50, SK-MEL-2, 48 h
IGROV1 = assay: NCI-60 SRB screen; conditions: for GI50 / CC50: Homo sapiens, IGROV-1, 48 h; for GI50 / TGI: IGROV1, 48 h; for CC50: read-out: LC50, IGROV1, 48 h
Colon cancer = assay: NCI-60 SRB screen, subpanel; conditions: for MG_MID TGI: Colon cancer subpanel; for GI50 / CC50: Homo sapiens; for GI50: read-out: MG_MID GI50; for CC50: read-out: MG_MID LC50

CCCC(C(=O)O)N1C(=O)/C(=C/C=C/c2ccc([N+](=O)[O-])o2)SC1=S (stereo not shown) [4b, 2-((Z)-5-((E)-3-(5-Nitrofuran-2-yl)allylidene)-4-oxo-2-thioxothiazolidin-3-yl)pentanoic acid] was tested, and the TGI (CCRF-CEM) was 7.26 µM, the TGI (SR) was 8.87 µM and the TGI (NCI-H23 [1]) was 4.11 µM. It also gave a TGI (LOX IMVI [2]) of 3.12 µM, a TGI (MDA-MB-435 [3]) of 3.31 µM and a TGI (786-0) of 12.6 µM. For the same molecule, the TGI (CAKI-1 [4]) was 3.70 µM, the TGI (TK-10 [5]) was 8.16 µM and the TGI (HS 578T) was 10.1 µM. The “MG_MID TGI” value (CNS cancer) was 4.46 µM, the “MG_MID TGI” value (Ovarian cancer [6]) was 8.71 µM and the “MG_MID TGI” value (Breast cancer) was 5.00 µM. It also gave a GI50 (K-562) of 2.77 µM, a CC50 (K-562) of over 100 µM and a GI50 (MOLT-4) of 3.3 µM. It also gave a CC50 (MOLT-4) of over 100 µM, a GI50 (NCI-H23 [7]) of 1.97 µM and a CC50 (NCI-H23 [7]) of 8.57 µM. For the same molecule, the GI50 (HCT-116) was 1.82 µM, the GI50 (HT29) was 1.95 µM and the CC50 (HT29) was 7.45 µM. For the same molecule, the GI50 (LOX IMVI [8]) was 1.59 µM, the CC50 (LOX IMVI [8]) was 6.11 µM and the GI50 (MDA-MB-435 [9]) was 1.62 µM. It also gave a CC50 (MDA-MB-435 [9]) of 6.77 µM, a GI50 (UACC-257) of 1.96 µM and a CC50 (UACC-257) of 14.8 µM. For the same molecule, the GI50 (CAKI-1 [10]) was 1.75 µM, the GI50 (SN12C) was 1.76 µM and the CC50 (SN12C) was 9.32 µM. It also gave a GI50 (TK-10 [11]) of 3.27 µM, a CC50 (TK-10 [11]) of 27.6 µM and a GI50 (BT-549) of 1.67 µM. The CC50 (BT-549) was 6.77 µM, the GI50 (T-47D) was 2.2 µM and the CC50 (T-47D; read-out: LC50) was over 100 µM. It also gave a GI50 (Melanoma) of 1.67 µM, a CC50 (Melanoma) of 7.32 µM and a GI50 (Ovarian cancer [12]) of 3.12 µM. It also gave a CC50 (Ovarian cancer [12]) of 23 µM, a GI50 (Renal Cancer) of 2.25 µM and a CC50 (Renal Cancer) of 18.5 µM. It also gave a TGI (A549/ATCC) of 5.40 µM, a GI50 (A549/ATCC) of 2.22 µM and a TGI (EKVX) of 7.77 µM. The GI50 (EKVX) was 2.53 µM, the CC50 (EKVX) was 27.7 µM and the GI50 (NCI-H266) was 2.62 µM. It also gave a CC50 (NCI-H266) of 78.9 µM, a TGI (NCI-H266) of 7.83 µM and a GI50 (SF-295) of 2.2 µM. For the same molecule, the CC50 (SF-295) was 25.7 µM, the TGI (SF-295) was 6.76 µM and the GI50 (SNB-75) was 1.53 µM. It also gave a CC50 (SNB-75) of 6.99 µM, a TGI (SNB-75) of 3.27 µM and a GI50 (U251) of 1.69 µM. The CC50 (U251) was 6.7 µM, the TGI (U251) was 3.37 µM and the GI50 (M14) was 1.83 µM. It also gave a CC50 (M14) of 7.74 µM, a TGI (M14) of 3.77 µM and a GI50 (SK-MEL-2) of 1.53 µM. For the same molecule, the CC50 (SK-MEL-2) was 5.89 µM, the TGI (SK-MEL-2) was 3.00 µM and the GI50 (IGROV1) was 1.94 µM. The CC50 (IGROV1) was 7.75 µM, the TGI (IGROV1) was 3.87 µM and the “MG_MID TGI” value (Colon cancer) was 3.41 µM. The GI50 (Colon cancer) was 1.73 µM and the CC50 (Colon cancer) was 6.48 µM.

For CC(C)C(C(=O)O)N1C(=O)/C(=C/C=C/c2ccc([N+](=O)[O-])o2)SC1=S (stereo not shown) [5b, 3-Methyl-2-((Z)-5-((E)-3-(5-nitrofuran-2-yl)allylidene)-4-oxo-2-thioxothiazolidin-3-yl)butanoic acid], the TGI (CCRF-CEM) was 1.81 µM, the TGI (SR) was 1.89 µM and the TGI (NCI-H23 [1]) was 3.41 µM. The TGI (LOX IMVI [2]) was 2.49 µM, the TGI (MDA-MB-435 [3]) was 2.17 µM and the TGI (786-0) was 3.70 µM. The “growth GP” value (CAKI-1 [4]; CAKI-1, 10 μM, 48 h) was -97.14%, the TGI (CAKI-1 [4]) was 2.46 µM and the TGI (TK-10 [5]) was 4.03 µM. The TGI (HS 578T) was 7.56 µM, the “MG_MID TGI” value (CNS cancer) was 2.79 µM and the “MG_MID TGI” value (Ovarian cancer [6]) was 5.19 µM. The “MG_MID TGI” value (Breast cancer) was 3.46 µM, the GI50 (K-562) was 0.45 µM and the CC50 (K-562) was over 100 µM. For the same molecule, the GI50 (MOLT-4) was 2.34 µM, the CC50 (MOLT-4) was over 100 µM and the GI50 (NCI-H23 [7]) was 1.75 µM. The CC50 (NCI-H23 [7]) was 6.63 µM, the GI50 (HCT-116) was 0.32 µM and the GI50 (HT29) was 1.37 µM. It also gave a CC50 (HT29) of 6.14 µM, a GI50 (LOX IMVI [8]) of 1.16 µM and a CC50 (LOX IMVI [8]) of 5.33 µM. It also gave a GI50 (MDA-MB-435 [9]) of 0.85 µM, a CC50 (MDA-MB-435 [9]) of 5.01 µM and a GI50 (UACC-257) of 1.57 µM. The CC50 (UACC-257) was 6.8 µM, the GI50 (CAKI-1 [10]) was 1.17 µM and the GI50 (SN12C) was 0.79 µM. The CC50 (SN12C) was 4.96 µM, the GI50 (TK-10 [11]) was 2.24 µM and the CC50 (TK-10 [11]) was 7.23 µM. The GI50 (BT-549) was 0.75 µM, the CC50 (BT-549) was 5.13 µM and the GI50 (T-47D) was 1.12 µM. It also gave a GI50 (Melanoma) of 1.25 µM, a CC50 (Melanoma) of 5.59 µM and a GI50 (Ovarian cancer [12]) of 1.92 µM. The CC50 (Ovarian cancer [12]) was 17.4 µM, the GI50 (Renal Cancer) was 1.54 µM and the CC50 (Renal Cancer) was 7.72 µM. For the same molecule, the TGI (A549/ATCC) was 3.83 µM, the GI50 (A549/ATCC) was 1.86 µM and the TGI (EKVX) was 4.80 µM. The GI50 (EKVX) was 2.01 µM, the CC50 (EKVX) was 13.9 µM and the GI50 (NCI-H266) was 2.4 µM. For the same molecule, the CC50 (NCI-H266) was 88.8 µM, the TGI (NCI-H266) was 7.65 µM and the GI50 (SF-295) was 1.83 µM. It also gave a CC50 (SF-295) of 6.69 µM, a TGI (SF-295) of 3.49 µM and a GI50 (SNB-75) of 0.68 µM. It also gave a CC50 (SNB-75) of 4.89 µM, a TGI (SNB-75) of 1.98 µM and a GI50 (U251) of 0.5 µM. It also gave a CC50 (U251) of 4.64 µM, a TGI (U251) of 1.79 µM and a GI50 (M14) of 1.6 µM. For the same molecule, the CC50 (M14) was 6.44 µM, the TGI (M14) was 3.21 µM and the GI50 (SK-MEL-2) was 1.52 µM. For the same molecule, the CC50 (SK-MEL-2) was 6.02 µM, the TGI (SK-MEL-2) was 3.03 µM and the GI50 (IGROV1) was 1.78 µM. The CC50 (IGROV1) was 6.57 µM, the TGI (IGROV1) was 3.42 µM and the “MG_MID TGI” value (Colon cancer) was 2.48 µM. The GI50 (Colon cancer) was 1.03 µM and the CC50 (Colon cancer) was 7.06 µM.
